In patent US20140309210A1, “INDAZOLE COMPOUNDS, COMPOSITIONS AND METHODS OF USE THEREOF” (Genentech, Inc., priority 2011, published 2014):

Biological target: T1, purified ITK (Invitrogen PV3875) (Homo sapiens, UniProt Q08881)
T1 construct: purchased Invitrogen PV3875
T1 sequence (Q08881 1-620): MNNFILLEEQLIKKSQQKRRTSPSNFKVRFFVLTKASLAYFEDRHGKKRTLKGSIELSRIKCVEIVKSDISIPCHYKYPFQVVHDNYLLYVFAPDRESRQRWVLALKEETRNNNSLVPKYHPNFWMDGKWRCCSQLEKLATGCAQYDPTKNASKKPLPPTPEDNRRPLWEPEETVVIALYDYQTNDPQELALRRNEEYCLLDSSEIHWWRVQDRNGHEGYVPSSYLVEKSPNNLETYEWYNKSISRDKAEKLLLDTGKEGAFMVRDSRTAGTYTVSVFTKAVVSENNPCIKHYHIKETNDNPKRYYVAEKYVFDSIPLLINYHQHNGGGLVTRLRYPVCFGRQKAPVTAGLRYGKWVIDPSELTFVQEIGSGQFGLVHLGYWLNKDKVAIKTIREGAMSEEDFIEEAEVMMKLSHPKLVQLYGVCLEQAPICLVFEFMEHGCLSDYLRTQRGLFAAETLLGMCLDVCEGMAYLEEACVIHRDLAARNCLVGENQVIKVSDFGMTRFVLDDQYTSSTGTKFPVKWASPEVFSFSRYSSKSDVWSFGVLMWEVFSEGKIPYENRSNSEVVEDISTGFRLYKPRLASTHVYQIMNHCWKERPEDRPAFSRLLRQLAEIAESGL
Assay: ITK peptide phosphorylation assay (Caliper LabChip or LCMS)
Format: biochemical
Method in brief: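 Ki values come from Morrison quadratic fits of activity versus inhibitor concentration, adjusted for ATP-competitive inhibition against ATP/Km,app. Substrate and phosphopeptide from purified ITK reactions were resolved either microfluidically (Caliper, EDTA stop) or by LC-MS MRM (TCA stop).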

[1] = Table 2, Examples 1-140, class symbols
[2] = Table 3, specific values for certain examples

SMILES | Ki (Table 1, Examples 141-279) | Ki [1] | Ki [2]
O=C(Nc1cnn(Cc2ccc(F)c(F)c2)c1)c1n[nH]c2ccccc12 [Example 68, N-(1-(3,4-difluorobenzyl)-1H-pyrazol-4-yl)-1H-indazole-3-carboxamide] | – | 1 to 100 nM | –
CN(C)Cc1ccc(Cn2cc(NC(=O)c3n[nH]c4ccccc34)cn2)cc1 [Example 115, N-(1-(4-((dimethylamino)methyl)benzyl)-1H-pyrazol-4-yl)-1H-indazole-3-carboxamide] | – | 1 to 100 nM | –
N#Cc1cncc(-c2ccc3c(C(=O)Nc4cnn(Cc5ccccc5)c4)n[nH]c3c2)c1 [Example 84, N-(1-benzyl-1H-pyrazol-4-yl)-6-(5-cyanopyridin-3-yl)-1H-indazole-3-carboxamide] | – | 1 to 100 nM | –
O=C(Nc1cnn(CCCCN2CCCC(O)C2)c1)c1n[nH]c2ccccc12 (stereo not drawn) [Example 76, N-(1-(4-(3-Hydroxypiperidin-1-yl)butyl)-1H-pyrazol-4-yl)-1H-indazole-3-carboxamide] | – | > 100 nM | –
N#Cc1cccc(Cn2cc(NC(=O)c3n[nH]c4ccc(-c5cc[nH]n5)cc34)cn2)c1 [Example 80, N-(1-(3-Cyanobenzyl)-1H-pyrazol-4-yl)-5-(1H-pyrazol-3-yl)-1H-indazole-3-carboxamide] | – | 1 to 100 nM | –
CN1CCN(c2nc(Cn3cc(NC(=O)c4n[nH]c5cc(-c6cn[nH]c6)ccc45)cn3)cs2)CC1 [Example 42, N-[1-[[2-(4-methylpiperazin-1-yl)thiazol-4-yl]methyl]pyrazol-4-yl]-6-(1H-pyrazol-4-yl)-1H-indazole-3-carboxamide] | – | 1 to 100 nM | –
O=C(Nc1cnn(Cc2cccnc2)c1)c1n[nH]c2ccccc12 [Example 54, N-(1-(pyridin-3-ylmethyl)-1H-pyrazol-4-yl)-1H-indazole-3-carboxamide] | – | 1 to 100 nM | 53.2 nM
O=C(Nc1cn[nH]c1)c1n[nH]c2cc(-c3cn[nH]c3)ccc12 [Example 168, N,6-bis(1H-pyrazol-4-yl)-1H-indazole-3-carboxamide] | 21.6 nM | – | –
CC[C@@H](c1ccccc1)n1cc(NC(=O)c2n[nH]c3cc(-c4cccnc4)ccc23)cn1 [Example 139, (S)—N-(1-(1-phenylpropyl)-1H-pyrazol-4-yl)-6-(pyridin-3-yl)-1H-indazole-3-carboxamide] | – | 1 to 100 nM | –
O=C(Nc1cnn(Cc2ccccc2F)c1)c1n[nH]c2ccccc12 [Example 65, N-(1-(2-fluorobenzyl)-1H-pyrazol-4-yl)-1H-indazole-3-carboxamide] | – | 1 to 100 nM | –
CCCNCc1cccc(Cn2cc(NC(=O)c3n[nH]c4ccccc34)cn2)c1 [Example 97, N-(1-(3-((propylamino)methyl)benzyl)-1H-pyrazol-4-yl)-1H-indazole-3-carboxamide] | – | 1 to 100 nM | –
CNCc1ccc(Cn2cc(NC(=O)c3n[nH]c4ccccc34)cn2)cc1 [Example 112, N-(1-(4-((methylamino)methyl)benzyl)-1H-pyrazol-4-yl)-1H-indazole-3-carboxamide] | – | 1 to 100 nM | –
C#Cc1cccc(Cn2cc(NC(=O)c3n[nH]c4cc(-c5cn[nH]c5)ccc34)cn2)c1 [Example 25, N-[1-[(3-ethynylphenyl)methyl]pyrazol-4-yl]-6-(1H-pyrazol-4-yl)-1H-indazole-3-carboxamide] | – | 1 to 100 nM | –
Cc1cccc(Cn2cc(NC(=O)c3n[nH]c4ccccc34)cn2)c1 [Example 55, N-(1-(3-methylbenzyl)-1H-pyrazol-4-yl)-1H-indazole-3-carboxamide] | – | 1 to 100 nM | –
O=C(Nc1cnn(CCN2CCCC(O)C2)c1)c1n[nH]c2ccccc12 (stereo not drawn) [Example 75, N-(1-(2-(3-Hydroxypiperidin-1-yl)ethyl)-1H-pyrazol-4-yl)-1H-indazole-3-carboxamide] | – | > 100 nM | 428 nM
COc1ccc(-c2ccc3c(C(=O)Nc4cnn(Cc5cccc(C#N)c5)c4)n[nH]c3c2)cn1 [Example 117, N-(1-(3-cyanobenzyl)-1H-pyrazol-4-yl)-6-(6-methoxypyridin-3-yl)-1H-indazole-3-carboxamide] | – | 1 to 100 nM | –
O=C(Nc1cnn(Cc2ccc(Cl)cc2)c1)c1n[nH]c2ccccc12 [Example 58, N-(1-(4-chlorobenzyl)-1H-pyrazol-4-yl)-1H-indazole-3-carboxamide] | – | 1 to 100 nM | 39.2 nM
COc1cccc(Cn2cc(NC(=O)c3n[nH]c4ccccc34)cn2)c1 [Example 67, N-(1-(3-methoxybenzyl)-1H-pyrazol-4-yl)-1H-indazole-3-carboxamide] | – | 1 to 100 nM | –
N#Cc1cccc(Cn2cc(NC(=O)c3n[nH]c4cc(N5CCCC5)ccc34)cn2)c1 [Example 86, N-(1-(3-cyanobenzyl)-1H-pyrazol-4-yl)-6-(pyrrolidin-1-yl)-1H-indazole-3-carboxamide] | – | 1 to 100 nM | –
COc1cc(Cn2cc(NC(=O)c3n[nH]c4ccccc34)cn2)cc(OC)c1 [Example 70, N-(1-(3,5-dimethoxybenzyl)-1H-pyrazol-4-yl)-1H-indazole-3-carboxamide] | – | 1 to 100 nM | –
O=C(Nc1cnn(Cc2cccc(CNC3CC3)c2)c1)c1n[nH]c2ccccc12 [Example 98, N-(1-(3-((cyclopropylamino)methyl)benzyl)-1H-pyrazol-4-yl)-1H-indazole-3-carboxamide] | – | 1 to 100 nM | –
Cc1ncccc1-c1ccc2c(C(=O)Nc3cnn(Cc4cccc(C#N)c4)c3)n[nH]c2c1 [Example 118, N-(1-(3-cyanobenzyl)-1H-pyrazol-4-yl)-6-(2-methylpyridin-3-yl)-1H-indazole-3-carboxamide] | – | > 100 nM | 110 nM

The remaining lines, values ahead:

Ki (Table 1, Examples 141-279) | Ki [1] | Ki [2] | SMILES
31.4 nM | – | – | COc1cncc(-c2ccc3c(C(=O)Nc4cnn(C(CN5CCN(C)CC5)c5cccnc5)c4)n[nH]c3c2)c1 (stereo not drawn) [Example 232, 6-(5-methoxy-3-pyridyl)-N-[1-[2-(4-methylpiperazin-1-yl)-1-(3-pyridyl)ethyl]py-razol-4-yl]-1H-indazole-3-carboxamide]
1.64 nM | – | – | COc1cncc(-c2ccc3c(C(=O)Nc4cnn(C(CCN(C)C)c5ccccc5)c4)n[nH]c3c2)c1 (stereo not drawn) [Example 212, N-[1-[3-(dimethylamino)-1-phenyl-propyl]pyrazol-4-yl]-6-(5-methoxy-3-pyridyl)-1H-indazole-3-carboxamide]
1.29 nM | – | – | CN(C)CCC(c1ccccc1)n1cc(NC(=O)c2n[nH]c3cc(-c4cn[nH]c4)cnc23)cn1 (stereo not drawn) [Example 278, N-[1-[3-(dimethylamino)-1-phenyl-propyl]pyrazol-4-yl]-6-(1H-pyrazol-4-yl)-1H-pyrazolo[4,3-b]pyridine-3-carboxamide]
2.79 nM | – | – | CCC(CC)Cn1cc(NC(=O)c2n[nH]c3cc(-c4cn[nH]c4)ccc23)cn1 [Example 238, N-[1-(2-ethylbutyl)pyrazol-4-yl]-6-(1H-pyrazol-4-yl)-1H-indazole-3-carboxamide]
3.19 nM | – | – | O=C(Nc1cnn(Cc2ccncc2)c1)c1n[nH]c2cc(-c3cn[nH]c3)ccc12 [Example 218, 6-(1H-pyrazol-4-yl)-N-[1-(4-pyridylmethyl)py-razol-4-yl]-1H-indazole-3-carboxamide]
4.81 nM | – | – | N#CCCn1cc(NC(=O)c2n[nH]c3cc(-c4cn[nH]c4)ccc23)cn1 [Example 261, N-[1-(2-cyanoethyl)py-razol-4-yl]-6-(1H-pyrazol-4-yl)-1H-indazole-3-carboxamide]
2.89 nM | – | – | CN(C)CCC(c1cscn1)n1cc(NC(=O)c2n[nH]c3cc(-c4cn[nH]c4)ccc23)cn1 (stereo not drawn) [Example 201, N-[1-[3-(dimethylamino)-1-thiazol-4-yl-propyl]pyrazol-4-yl]-6-(1H-pyrazol-4-yl)-1H indazole-3-carboxamide]
2.04 nM | – | – | N#Cc1cccc(Cn2cc(NC(=O)c3n[nH]c4cc(-c5cnco5)ccc34)cn2)c1 [Example 197, N-[1-[(3-cyanophenyl)meth-yl]pyrazol-4-yl]-6-oxazol-5-yl-1H-indazole-3-carboxamide]
103 nM | – | – | N#Cc1cccc(Cn2cc(NC(=O)c3n[nH]c4cc(C(F)(F)F)ccc34)cn2)c1 [Example 250, N-[1-[(3-cyanophenyl)meth-yl]pyrazol-4-yl]-6-(trifluoromethyl)-1H-indazole-3-carboxamide]
0.7 nM | – | – | CC[C@@H](c1cscn1)n1cc(NC(=O)c2n[nH]c3cc(-c4cn[nH]c4)ccc23)cn1 [Example 175, 6-(1H-pyrazol-4-yl)-N-[1-[(1S)-1-thiazol-4-ylpropyl]pyrazol-4-yl]-1H-indazole-3-carboxamide]
404 nM | – | – | CNc1cc(-c2ccc3c(C(=O)Nc4cnn(Cc5ccccc5)c4)n[nH]c3c2)ncn1 [Example 217, N-(1-benzylpyrazol-4-yl)-6-[6-(methylamino)py-rimidin-4-yl]-1H-indazole-3-carboxamide]
5.38 nM | – | – | COc1cncc(-c2ccc3c(C(=O)Nc4cnn(C(CN5CCN(C)CC5)c5cccnc5)c4)n[nH]c3c2)c1 (stereo not drawn) [Example 234, 6-(5-methoxy-3-pyridyl)-N-[1-[2-(4-methylpiperazin-1-yl)-1-(3-pyridyl)ethyl]py-razol-4-yl]-1H-indazole-3-carboxamide]
7.17 nM | – | – | CCC(c1ccccc1)n1cc(NC(=O)c2n[nH]c3cc(-c4cncc(OC)c4)ccc23)cn1 (stereo not drawn) [Example 214, 6-(5-methoxy-3-pyridyl)-N-[1-(1-phenylpropyl)py-razol-4-yl]-1H-indazole-3-carboxamide]
